Test [1] relates to aPTT. Kind of test: aPTT of blood exposed to antithrombotic and antiplatelet agents. The test is classed as biochemical, human. As for the experimental part: Blood was harvested between 0900 and 1200 hours. Phlebotomies were performed with 19 gauge butterfly needles and a two syringe technique with which the first three ml of blood were discarded. […] The concentrations of heparin, enoxaparin and abciximab were chosen to simulate those attained in clinical practice and equivalent anti-IIa and anti-Xa concentrations of hirudin and rTAP -were chosen. Final volumes were 1 part anticoagulant to 9 parts blood.

Test [2] concerns tissue factor initiated clotting in whole blood. The test can be described thus: tissue factor dependent clotting assay in minimally altered whole blood, contact pathway suppressed with CTI, Hemochron ACT instrument. The test is classed as cell-based, human. From the text: This assay uses an anti-coagulation sufficient amount of CTI to inhibit clotting in minimally altered whole blood. The assay is more particularly referred to herein as “tissue factor dependent clotting assay” or similar phrase. The assay is particularly useful for monitoring coagulation in whole or minimally altered whole blood. As an example, the assay is especially useful as a novel bedside tool that permits improved therapuetic assessment including standard antithrombotic and antiplatelet therapies. The assay should also facilitate improved dose selection, titration and monitoring of multicomponent antithrombotic, antiplatelet, and fibrinolytic treatment.
Blood samples were obtained from healthy individuals and the contact pathway of coagulation was inhibited with corn trypsin inhibitor(a specific factor XIIa inhibitor without effect on other coagulation factors.). Clotting was initiated with relipidated tissue factor and detected with a Hemochron ACT instrument. Results were reproducible with samples from 20 healthy volunteers (mean time to clot=118±9 seconds). In other studies, blood was exposed to pharmacologic concentrations of antithrombotic and antiplatelet agents in vitro. […] Additive effects of antiplatelet agents were readily detectable in contrast to the case with aPTT assays. Thus, addition of 3 μg/ml abciximab to 0.1 anti-IIa/Xa U/ml of heparin and to 0.4 anti-Xa U/ml of enoxaparin prolonged the times to clot by 62 and 52 seconds, respectively (p<0.05 for each).
Blood was harvested between 0900 and 1200 hours. Phlebotomies were performed with 19 gauge butterfly needles and a two syringe technique with which the first three ml of blood were discarded. Blood samples were drawn into syringes containing corn trypsin inhibitor (CTI, Enzyme Research Laboratories, South Bend, Ind.) alone in concentrations ranging from 32 to 300 μg/ml or in combination with selected pharmacologic concentrations of heparin (0.1, 0.25 and 0.4 anti-IIa/Xa U/ml), enoxaparin (0.4 and 0.8 anti-Xa U/ml, Rhone-Poulenc Rorer), hirudin ([…], Sigma), recombinant tick anticoagulant peptide (rTAP, 0.4 anti-Xa U/ml, kindly provided by Corvass International), or abciximab (3 μg/ml, Eli Lilly). The concentrations of heparin, enoxaparin and abciximab were chosen to simulate those attained in clinical practice and equivalent anti-IIa and anti-Xa concentrations of hirudin and rTAP -were chosen. Final volumes were 1 part anticoagulant to 9 parts blood.
A 400 μl aliguot of blood was added to a K-resin ACT tube kindly provided by International Technidyne without the glass beads traditionally used to activate the contact pathway. Lipidated tissue factor (1-60 pM, American Diagnostica, Greenwich, Conn.) was added to K-resin tubes before addition of blood.
The K-resin tubes containing tissue factor and blood were placed promptly in a Hemochron ACT instrument. The time to clot was detected by the displacement of a dependent magnet within the rotating tube when fibrin strands formed. The blood was maintained at 37° C. throughout the assay procedure.

[3] abbreviates: abciximab 3 μg/ml added to 0.1 anti-IIa/Xa U/ml heparin.
[4] abbreviates: abciximab 3 μg/ml added to 0.4 anti-Xa U/ml enoxaparin.

“And” between values parts separate entries of the source, which are not always exact repeats. Equal entries are not always repeated. “Also recorded” adds a separate entry of the source.

Consider hirudin, for which the “prolongation of the aPTT” value in test [1] (hirudin 0.4 anti-IIa U/ml) is 3 s; in test [1] (hirudin 0.8 U/ml), 16 s. The “effect on the aPTT” value is reported as “significantly prolonged only with the higher concentration; also recorded: detected only with 0.8 U/ml; also recorded: not affected” in test [1] (hirudin 0.4 anti-IIa U/ml (versus 0.8 U/ml)) and “without prolonging the aPTT” in test [1] (hirudin 0.4 anti-IIa U/ml (versus 0.8 U/ml), listed as Hirudin). The “effect on the time to clot” value in test [2] (hirudin 0.4 and 0.8 anti-IIa U/ml, 200 μg/ml CTI, 20 pM tissue factor) was “prolonged the time to clot at each concentration tested”. The “prolongation of the time to clot” value in test [2] (hirudin 0.4 anti-IIa U/ml, 200 μg/ml CTI, tissue factor initiated) is 21 s; in test [2] (hirudin 0.8 U/ml, 200 μg/ml CTI, 20 pM tissue factor) it was 37 s.
Consider “rTAP: recombinant tick anticoagulant peptide, a specific inhibitor of factor Xa (YNRLCIKPRDWIDECDSNEGGERAYFRNGKGGCDSFWICPEDHTGADYYSSYRDCFNACI; UniProt P17726 1-60, looked up)”, for which the “effect on the aPTT” value in test [1] (rTAP 0.4 anti-Xa U/ml) is listed as “no effect; also recorded: not affected”; in test [1] (rTAP 0.4 anti-Xa U/ml, listed as tick anticoagulant peptide) it was “without prolonging the aPTT”. The “prolongation of the aPTT” value in test [1] (tick anticoagulant peptide 0.4 anti-Xa U/ml) was found to be 3 s. Further, in test [2] (rTAP 0.4 anti-Xa U/ml, 200 μg/ml CTI, 20 pM tissue factor), the “effect on the time to clot” value is on record as “prolonged the time to clot”. For the same molecule, the “prolongation of the time to clot” value in test [2] (rTAP 0.4 anti-Xa U/ml, 200 μg/ml CTI, tissue factor initiated) is 229 s.
As to enoxaparin, the “effect on the aPTT” value is “increased with increasing concentrations” in test [1] (enoxaparin 0.4 and 0.8 anti-Xa U/ml); “prolonged” in test [1] (enoxaparin 0.4 and 0.8 anti-Xa U/ml, listed as Enoxaparin). Besides, in test [1] (enoxaparin 0.4 anti-Xa U/ml), the “increase of the aPTT” value was determined as 15 s. For the same molecule, the “effect on the time to clot” value is given as “increased with increasing concentrations” in test [2] (enoxaparin 0.4 and 0.8 anti-Xa U/ml, 200 μg/ml CTI, 20 pM tissue factor); “prolonged” in test [2] (enoxaparin 0.4 and 0.8 anti-Xa U/ml, 200 μg/ml CTI, 20 pM tissue factor, listed as Enoxaparin). Further, in test [2] (enoxaparin 0.4 anti-Xa U/ml), the “increase of the time to clot” value was determined as 46 s.
For heparin, the “increase of the aPTT” value in test [1] (heparin 0.1 anti-IIa/Xa U/ml) turned out to be 34 s. In addition, the “effect on the aPTT” value in test [1] (heparin 0.25 and 0.4 anti-IIa/Xa U/ml) was “prolonged with increasing concentrations”; in test [1] (heparin 0.25 and 0.4 anti-IIa/Xa U/ml, listed as Heparin), “prolonged”. Moreover, the “increase of the time to clot” value in test [2] (heparin 0.1 anti-IIa/Xa U/ml) was 41 s. Also, the “effect on the time to clot” value in test [2] (heparin 0.25 and 0.4 anti-IIa/Xa U/ml, 200 μg/ml CTI, 20 pM tissue factor) was “prolonged with increasing concentrations”; in test [2] (heparin 0.25 and 0.4 anti-IIa/Xa U/ml, 200 μg/ml CTI, 20 pM tissue factor, listed as Heparin), “prolonged”.

B1: lipidated tissue factor: lipidated tissue factor (American Diagnostica), initiator of clotting (protein, UniProt P13726 33-295, looked up)
Tissue factor: SGTTNTVAAYNLTWKSTNFKTILEWEPKPVNQVYTVQISTKSGDWKSKCFYTTDTECDLTDEIVKDVKQTYLARVFSYPAGNVESTGSAGEPLYENSPEFTPYLETNLGQPTIQSFEQVGTKVNVTVEDERTLVRRNNTFLSLRDVFGKDLIYTLYYWKSSSSGKKTAKTNTNEFLIDVDKGENYCFSVQAVIPSRTVNRKSTDSPVECMGQEKGEFREIFYIIGAVVFVVIILVIILAISLHKCRKAGVGQSWKENSPLNVS
modifications: lipidated
notes: lipidated tissue factor (American Diagnostica), initiator of clotting
With B1, in test [2] (lipidated tissue factor 1.0 to 60 pM, 12 subjects), the “effect on the time to clot” value is given as “concentration dependent decrease in the time to clot”.

B2: abciximab (antibody, chains of the INN, looked up, V domains shown)
VH: EVQLQQSGTVLARPGASVKMSCEASGYTFTNYWMHWVKQRPGQGLEWIGAIYPGNSDTSYIQKFKGKAKLTAVTSTTSVYMELSSLTNEDSAVYYCTLYDGYYVFAYWGQGTLVTVSA
VL: EIVLTQSPVTLSVTPGDSVSLSCRASRDISNNLHWFQQTSHESPRLLIKYASQSMSGIPSRFSGSGSGTDFTLSINSVETEDFGMYFCQQTNSWPYTFGGGTKLEIK
modifications: Fab
notes: commercially available monoclonal antibody against platelet glycoprotein gpIIb-IIIa
For B2, the “effect on the aPTT of adding abciximab to heparin” value in test [1] (setting [3]) is listed as “not affected; also recorded: did not prolong further the aPTT; also recorded: did not affect the aPTT”. Also, in test [1] (setting [4]), the “effect on the aPTT of adding abciximab to enoxaparin” value is “not affected; also recorded: did not prolong further the aPTT”. In addition, the “effect of the combination on the time to clot” value in test [2] (0.1 anti-IIa U/ml heparin with 3 μg/ml abciximab, 200 μg/ml CTI, 20 pM tissue factor) is listed as “prolonged the time to clot compared with heparin alone”; in test [2] (0.4 anti-Xa U/ml enoxaparin with 3 μg/ml abciximab, 200 μg/ml CTI, 20 pM tissue factor), “prolonged the time to clot compared with enoxaparin alone”. The “further prolongation of the time to clot compared with heparin alone” value in test [2] (setting [3]) was 62 s and 61 s. In addition, the “further prolongation of the time to clot compared with enoxaparin alone” value in test [2] (setting [4]) worked out at 52 s. Besides, the “prolongation of the time to clot by the combination” value in test [2] (abciximab 3 μg/ml and heparin in combination) turned out to be 102 s.

Source of the values: US6566140B2, “Inhibition of coagulation in blood and blood products” (University of Vermont and State Agriculture College, priority 1998, dated 2003).
